21 compounds from patent publication US20240343720A1, “AAK1 INHIBITOR AND USE THEREOF” (Xizang Haisco Pharmaceutical Co., Ltd., priority 2021, published 2024) can be followed below.

Broadly, the IC50 is the concentration that inhibits the measured activity by half.

Structures are written as SMILES.

In the test the target is AAK1 (Homo sapiens (Human), UniProt Q2M2I8). The test is described as follows: In vitro AAK1 enzyme activity assay (ADP-Glo). Type of test: biochemical. To be noted: read-out: Inhibitory activity against AAK1 IC50. As to the method: Compound stock solution (concentration: 10 mM, dissolved in DMSO) was diluted with DMSO to 0.2 mM and then diluted with DMSO in 5-fold gradient to obtain compound solutions with 10 concentrations. Subsequently, the compound solutions with different concentrations were diluted 50-fold in 1×kinase reaction buffer (containing 40 mM Tris, 20 mM MgCl2, 0.1% BSA and 0.5 mM DTT) for later use. AAK1 (Signalchem, Cat #A01-11G-10) was diluted with 1×kinase reaction buffer to 2-fold the final concentration (final concentrations: 30 nM and 28 nM). AAK1 was added to a 384-well white plate at 2 μL/well, and the compounds were then added at 1 μL/well. The plate was sealed with a plate-sealing film, centrifuged at 1000 rpm for 30 seconds and then placed at room temperature for 10 minutes. A mixed solution of ATP (Promega, Cat #V914B) and substrate Micro2 (GenScript, Cat #PE0890) was formulated at 4-fold the final concentration (for AAK1, the corresponding final concentrations of ATP: 15 μM and 5 μM, and the corresponding final concentration of Micro2: 0.1 mg/mL). To the reaction plate was added the mixed solution of ATP and the substrate at 1 μL/well. The plate was sealed with a plate-sealing film and centrifuged at 1000 rpm for 30 seconds. The reaction was carried out at room temperature for 60 minutes (AAK1). ADP-Glo (Promega, Cat #V9102) was transferred to the 384-well plate at 4 μL/well and centrifugation was carried out at 1000 rpm for 1 minute. The mixture was incubated at 25° C. for 40 minutes. A detection solution was transferred to the 384-well plate at 8 μL/well and centrifugation was carried out at 1000 rpm for 1 minute. The resulting mixture was incubated at 25° C. for 40 minutes. The RLU (Relative luminescence unit) signal values were read using a Biotek multilable microplate reader and the percent inhibition was calculated according to the following formula: [1−(LUMcompound−LUMpositive control)/(LUMnegative control−LUMpositive control)]×100. IC50 values were calculated using Graphpad 7.0 software using a four-parameter non-linear fit equation.
Chain of AAK1 (Q2M2I8 27-365): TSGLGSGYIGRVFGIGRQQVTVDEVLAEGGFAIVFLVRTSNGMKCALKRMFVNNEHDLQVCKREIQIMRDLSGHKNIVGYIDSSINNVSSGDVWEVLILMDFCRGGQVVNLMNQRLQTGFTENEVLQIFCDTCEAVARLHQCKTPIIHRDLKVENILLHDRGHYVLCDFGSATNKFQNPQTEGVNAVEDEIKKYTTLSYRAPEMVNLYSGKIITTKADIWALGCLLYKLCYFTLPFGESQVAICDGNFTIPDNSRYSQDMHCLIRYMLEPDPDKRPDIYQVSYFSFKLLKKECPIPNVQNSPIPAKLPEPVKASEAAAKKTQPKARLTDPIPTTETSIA
(In general: ADP-Glo first removes unused ATP, then detects ADP through luciferase.)
As to `CC(C)(F)CC(C)(N)COc1ccc(-c2ccnc(C(F)F)c2)nc1C(F)F` (stereo not drawn) [Compound 1, 1-((2′,6-bis(difluoromethyl)-[2,4′-bipyridin]-5-yl)oxy)-4-fluoro-2,4-dimethylpentan-2-amine], the IC50 was determined as 14.7 nM.
The figure for `C=C(C)C[C@](C)(N)COc1ccc(-c2ccnc(NC(=O)[C@H]3CC3(F)F)c2)cc1C#N` [Compound 29, (1R)-N-(4-(4-{[(2S)-2-amino-2,4-dimethylpent-4-en-1-yl]oxy}-3-cyanophenyl)pyridin-2-yl)-2,2-difluorocyclopropane-1-carboxamide] is 11 nM.
The figure for `CC(=O)Nc1cc(-c2ccc(OC[C@@](C)(N)CC(C)(O)CO)c(C#N)c2)ccn1` (stereo partly drawn) [Compound 28, N-(4-(4-(((2S)-2-amino-4,5-dihydroxy-2,4-dimethylpentyl)oxy)-3-cyanophenyl)pyridin-2-yl)acetamide] is 5.96 nM; for `C[C@@](N)(COc1ccc(-c2ccnc(C(F)F)c2)nc1C(F)F)CC1CC1` [Compound 26, (S)-1-((2′,6-bis(difluoromethyl)-[2,4′-bipyridin]-5-yl)oxy)-3-cyclopropyl-2-methylpropan-2-amine] it is 11 nM.
The figure for `C=C(C)C[C@](C)(N)COc1ccc(-c2ccnc(NC(C)=O)c2)cc1C#N` [Compound 5, (S)-N-(4-(4-((2-amino-2,4-dimethylpent-4-en-1-yl)oxy)-3-cyanophenyl)pyridin-2-yl)acetamide] is 6.37 nM.
In the case of `C=C(C)C[C@](C)(N)COc1cnc(-c2ccnc(NC(=O)OC)c2)cc1C(F)(F)F` [Compound 7, Methyl-(S)-(5-((2-amino-2,4-dimethylpent-4-en-1-yl)oxy)-4-(trifluoromethyl) [2,4′-bipyridin]-2′-yl)carbamate], the IC50 is 13.8 nM.
The figure for `C=C(C)C[C@](C)(N)COc1ccc(-c2ccnc(NC(=O)[C@H]3C[C@H]3F)c2)cc1C#N` [Compound 25, (1R,2R)-N-(4-(4-(((S)-2-amino-2,4-dimethylpent-4-en-1-yl)oxy)-3-cyanophenyl)pyridin-2-yl)-2-fluorocyclopropane-1-carboxamide] is 11.9 nM.
The figure for `COC(=O)Nc1cc(-c2ccc(OC[C@@](C)(N)CC3CC3)c(C(F)F)n2)ccn1` [Compound 31, Methyl (S)-(5-(2-amino-3-cyclopropyl-2-methylpropoxy)-6-(difluoromethyl)-[2,4′-bipyridin]-2′-yl)carbamate] is 10.9 nM; for `NC1(COc2ccc(-c3ccnc(C(F)F)c3)nc2C(F)F)CCCC1` [Compound 22, 1-(((2′,6-bis(difluoromethyl)-[2,4′-bipyridin]-5-yl)oxy)methyl)cyclopentan-1-amine] it is 32.1 nM; for `COC(=O)Nc1cc(-c2cnc(OC[C@@](C)(N)CC(C)(C)F)c(C(F)F)c2)ccn1` [Compound 18, (S)-methyl-(6-((2-amino-4-fluoro-2,4-dimethylpentyl)oxy)-5-(difluoromethyl)-[3,4′-bipyridin]-2′-yl)carbamate] it is 9.55 nM.
The figure for `C=C(C)C[C@](C)(N)COc1ccc(-c2ccnc(NC(C)=O)c2)cc1C(N)=O` [Compound 23, (S)-5-(2-acetamidopyridin-4-yl)-2-((2-amino-2,4-dimethylpent-4-en-1-yl)oxy)benzamide] is 38.6 nM.
In the case of `COC(=O)Nc1cc(-c2cc(C(F)(F)F)c(OCC(C)(N)C=C(C)C)cn2)ccn1` (stereo not drawn) [Compound 27, Methyl (5-((2-amino-2,4-dimethylpent-3-en-1-yl)oxy)-4-(trifluoromethyl)-[2,4′-bipyridin]-2′-yl)carbamate], the IC50 came out at 43.1 nM.
The figure for `CC(=O)Nc1cc(-c2ccc(OC[C@@](C)(N)CC(C)(C)F)c(C#N)c2)ccn1` [Compound 6, (S)-N-(4-(4-((2-amino-4-fluoro-2,4-dimethylpentyl)oxy)-3-cyanophenyl)pyridin-2-yl)acetamide] is 11 nM; for `C=C(C)C[C@](C)(N)COc1ncc(-c2ccnc(NC(=O)OC)c2)cc1C(F)F` [Compound 17, (S)-methyl-(6-((2-amino-2,4-dimethylpent-4-en-1-yl)oxy)-5-(difluoromethyl)-[3,4′-bipyridin]-2′-yl)carbamate] it is 26.8 nM.
The figure for `C=C(C)C[C@](C)(N)COc1ccc(-c2ccnc(NC(=O)OC)c2)nc1C` [Compound 10, Methyl (S)-(5-((2-amino-2,4-dimethylpent-4-en-1-yl)oxy)-6-methyl-[2,4′-bipyridin]-2′-yl)carbamate] is 11.5 nM; for `CC(=O)Nc1cc(-c2ccc(OC[C@@](C)(N)CC(C)(C)F)c(C(F)F)n2)ccn1` [Compound 16, (S)-N-(5-((2-amino-4-fluoro-2,4-dimethylpentyl)oxy)-6-(difluoromethyl)-[2,4′-bipyridin]-2′-yl)acetamide] it is 22.3 nM.
The figure for `COC(=O)Nc1cc(-c2cc(C(F)F)c(OC[C@@](C)(N)CC(C)(C)F)cn2)ccn1` [Compound 20, Methyl (S)-(5-((2-amino-4-fluoro-2,4-dimethylpentyl)oxy)-4-(difluoromethyl)-[2,4′-bipyridin]-2′-yl)carbamate] is 16.1 nM.
Turning to `C=C(C)C[C@](C)(N)COc1ccc(-c2ccnc(NC(=O)[C@@H]3CC3(F)F)c2)cc1C#N` [Compound 30, (1S)-N-(4-(4-{[(2S)-2-amino-2,4-dimethylpent-4-en-1-yl]oxy}-3-cyanophenyl)pyridin-2-yl)-2,2-difluorocyclopropane-1-carboxamide], the IC50 is 9.08 nM.
The figure for `C=C(C)C[C@](C)(N)COc1ccc(-c2ccnc(NC(C)=O)c2)nc1C(F)F` [Compound 15, (S)-N-(5-((2-amino-2,4-dimethylpent-4-en-1-yl)oxy)-6-(difluoromethyl)-[2,4′-bipyridin]-2′-yl)acetamide] is 19.8 nM; for `C=C(C)C[C@](C)(N)COc1ccc(-c2ccnc(NC(=O)C3CC(F)(F)C3)c2)cc1C#N` [Compound 24, (S)-N-(4-(4-((2-amino-2,4-dimethylpent-4-en-1-yl)oxy)-3-cyanophenyl)pyridin-2-yl)-3,3-difluorocyclobutane-1-carboxamide] it is 22.5 nM; for `CC(N)(COc1ccc(-c2ccnc(C(F)F)c2)nc1C(F)F)CC1(C)CC1` (stereo not drawn) [Compound 2, 1-((2′,6-bis(difluoromethyl)-[2,4′-bipyridin]-5-yl)oxy)-2-methyl-3-(1-methylcyclopropyl) propan-2-amine] it is 9.29 nM.
